Assay results taken from paper PMC11231141, “Ube3a unsilencer for the potential treatment of Angelman syndrome” (Nature Communications, 2024).
Where two headings read alike, the source gives them in different places.

Assays:
paternal UBE3A-YFP [1] = test: paternal UBE3A-YFP unsilencing, high-content imaging in mouse primary neurons (Ube3a m+/pYFP); type: cell-based; details: for Emax: Neuron, highest concentration with at least 90% neurons alive, read-out: EMAX (% patUBE3A-YFP+)
Description: We aimed to identify novel unsilencers of paternal Ube3a by employing a previously developed high-content small molecule screen. This screen was performed in primary neurons derived from knock-in mice harboring a yellow fluorescent protein (YFP) fused to the paternal allele of Ube3a[25], allowing for fluorescence-based identification of the paternal allele-specific expression of UBE3A-YFP (detected by a GFP antibody enhancement) (Fig. 1a and Supplementary Table 1). We screened >2800 compounds from a Pfizer chemogenetic library, which contains small molecules selected to cover a broad spectrum of pharmacological space. We screened small molecules at 1 μM concentration and used 0.3 μM topotecan, a topoisomerase inhibitor that can downregulate the Ube3a-ATS and unsilence the paternal Ube3a, as a positive control (Fig. 1b)[10]. Small molecules that increase the UBE3A-YFP signal represent putative paternal Ube3a unsilencers.
Immunofluorescence for high-content imaging analysis was performed as previously described with slight modifications. Following drug treatment at DIV7, primary neurons were fixed at DIV10 with 4% paraformaldehyde in PBS at room temperature (RT) for 10 min. After three brief washes in PBS, neurons were permeabilized with PBS/1% Triton-X-100 at RT for 10 min, followed by blocking with PBS including 5% normal goat serum and 0.2% Triton-X-100 (NGST) at RT. […] All acquired images were analyzed by CellProfiler[48]. The mean GFP signal from each drug-treated well was normalized to the average mean GFP signal from DMSO-treated neurons. […] Fluorescent images were acquired using a Nikon Ti2 eclipse fluorescence microscope (Nikon Instruments Inc.) and analyzed using Nikon NIS-Elements software (Nikon Instruments Inc.). Antibody-enhanced UBE3A-YFP fluorescence intensities were determined from DAPI and NeuN double-positive neurons in drug-treated wells and normalized to neurons in DMSO-treated wells. The cytotoxicity of a compound was determined by calculating the percentage of neurons (DAPI and NeuN double-positive cells) alive in drug-treated wells compared to the DMSO-treated wells. For determining the effectiveness of unsilencing, the percent neurons expressing GFP signal in neurons (DAPI and NeuN double-positive cells) in drug-treated wells was thresholded such that the percent GFP positive neurons in DMSO-treated wells was set to ~5%. Concentrations where more than 10% of neurons were dead compared to DMSO-treated wells were manually removed and the last included data point was set as a maximum efficacy. Sigmoidal curve fitting for the dose-response analysis was performed using GraphPad Prism software version 8.0 (GraphPad Software).

UBE3A protein = test: western blot of UBE3A protein in wild-type primary neurons; type: cell-based, mouse
Description: 2’ MOE gapmer antisense oligonucleotides (ASOs) designed to target mouse Cdk2 sequence […], Cdk5 sequence […], Top1 sequence […], and scrambled […] sequence as a negative control (Integrated DNA Technologies) were formulated in water and added to cultured cortical neurons grown on 6-well plates at DIV5 at a final concentration of 10 μM. Neurons were further cultured and treated at DIV7 with vehicle (0.1% DMSO) or the indicated compounds for 72 h. For western blot analysis, neurons were washed once with PBS and then lysed using RIPA buffer (50 mM Tris-HCl pH 8.0, 150 mM NaCl, 1% NP−40, 0.5% Na-deoxycholate, 0.5% SDS) and protease inhibitor cocktail (P8340, MilliporeSigma) on ice. […]
from the paternal allele in mouse wild-type primary neurons. Primar y cortical neurons derived from wild-type (WT) mice were treated either with 0.1% DMSO as a vehicle, 1 µM ( S)-P HA53 35 33 , or 0.3 µ M to po te can for 72 hours at DIV7. Following the treatment, the relative quantity of ( a) Ube3a […]
determined through western blotting, with the data averaged across three individual experiments, depicted in (c). […]

[2] = tested on: Snord115, Dlg2, Nrxn3, Malat1; test: quantitative RT-PCR of long genes in cultured mouse neurons; type: cell-based; details: 1 µM (S)-PHA533533 or 0.3 µM topotecan, 72 h, vs DMSO
Description: […]. […] […]. […] […]. […] […].

paternal UBE3A-YFP [3] = test: paternal UBE3A-YFP western blot after ASO-mediated knockdown of candidate targets; type: cell-based, mouse; details: for unsilencing of paternal Ube3a after ASO-mediated knockdown of TOP1: 10 µM ASO at DIV5, 1 µM (S)-PHA533533 or 0.3 µM topotecan 72 h from DIV7
Description: . […] Scrambled ASO together with DMSO treatment were used as controls for any non-specific effects.
The addition of TOP1 catalyzes supercoiled DNA substrate (lane 1) into slower migrating relaxed DNA (lane 2). […] . Following the treatment, the relative quantities of (h) Snord115, (i) Dlg2, (j) Nrxn3, (k) Malat1, (l) Pantr1, and (m) Airn transcripts were determined by quantitative RT-PCR (n = 4 experiments; mean ± SEM).
2’ MOE gapmer antisense oligonucleotides (ASOs) designed to target mouse Cdk2 sequence […], Cdk5 sequence […], Top1 sequence […], and scrambled […] sequence as a negative control (Integrated DNA Technologies) were formulated in water and added to cultured cortical neurons grown on 6-well plates at DIV5 at a final concentration of 10 μM. Neurons were further cultured and treated at DIV7 with vehicle (0.1% DMSO) or the indicated compounds for 72 h. For western blot analysis, neurons were washed once with PBS and then lysed using RIPA buffer (50 mM Tris-HCl pH 8.0, 150 mM NaCl, 1% NP−40, 0.5% Na-deoxycholate, 0.5% SDS) and protease inhibitor cocktail (P8340, MilliporeSigma) on ice.

| Compound | paternal UBE3A-YFP immunofluorescent signal (paternal UBE3A-YFP [1]; 0.3 μM topotecan, 1 μM (R)- or (S)-PHA533533, 72 h) | Emax (paternal UBE3A-YFP [1]; Mus musculus, 72 h, mean ± SEM) [%] | EC50 (paternal UBE3A-YFP [1]; Mus musculus, Primary neuron, 72 h, mean ± SEM, n = 3) [nM] | UBE3A protein levels in WT neurons (UBE3A protein; 1 µM (S)-PHA533533 or 0.3 µM topotecan, 72 h at DIV7) | expression of long genes (Snord115, Dlg2, Nrxn3, Malat1) [2] | unsilencing of paternal Ube3a after ASO-mediated knockdown of TOP1 (paternal UBE3A-YFP [3]) | paternal UBE3A-YFP immunofluorescent signal (paternal UBE3A-YFP [1]) | UBE3A protein levels in WT neurons (UBE3A protein) | unsilencing of paternal UBE3A-YFP after ASO-mediated knockdown of CDK5 (paternal UBE3A-YFP [3]; 10 µM ASO at DIV5, 1 µM (S)-PHA533533 72 h from DIV7) |
| --- | --- | --- | --- | --- | --- | --- | --- | --- | --- |
| CC[C@@]1(O)C(=O)OCc2c1cc1n(c2=O)Cc2cc3c(CN(C)C)c(O)ccc3nc2-1 [Topotecan, reference compound] | high levels of paternal UBE3A-YFP | 66.31 ± 0.45 | 80 ± 20 | significantly increased | significantly impaired the expression of all the measured long genes | almost completely occluded |  |  |  |
| C[C@H](C(=O)Nc1cc(C2CC2)[nH]n1)c1ccc(N2CCCC2=O)cc1 [(S)-PHA533533] |  | 80 ± 8.41 |  |  | significantly reduced the expression of only Snord115 | did not affect | high levels of paternal UBE3A-YFP | significantly increased | nor did it occlude the unsilencing |
